# Measurements taken from PubChem BioAssay AID624395 (The Scripps Research Institute Molecular Screening Center, 2012).
# Calls of active or inactive are those of the source. How the calls were made is not given here.
# Tested on: cell-based VP16 transactivation luciferase luminescence
# Test: VP16 transactivation luciferase reporter inhibitors, dose response, counter-screen for NR2E3 agonist project, cell-based, luminescence (AID 624395)
row,SMILES,IC50
1,CCC1(C)Cc2c(sc3[nH]c(=S)n(Cc4ccccc4)c(=O)c23)CO1 (centres undefined),12.1 µM (inactive)
2,c1ccc(C(Cc2nc(-c3ccncc3)no2)c2ccccc2)cc1,4.37 µM
3,Cc1ccc([C@@H]2CC=C(C(=O)O)[C@H](c3ccc(C(C)(C)C)cc3)N2S(=O)(=O)c2ccc(C)cc2)cc1,7.47 µM
4,O=NN(CC(=O)NNc1ccccc1)CC(=O)NNc1ccccc1,23.2 µM (inactive)
5,CN(CC(=O)Nc1ccccc1Cl)C(=O)c1cccc(S(=O)(=O)N2CCN(c3ccc(F)cc3)CC2)c1,4.59 µM
6,O=C(CSc1nnnn1-c1ccc(O)cc1)Nc1ccc(N2CCOCC2)c(Cl)c1,4.47 µM
7,Cc1ccnc(NC(=O)Cc2ccc(-c3ccccc3)cc2)c1,> 39.8 µM (inactive)
8,Cc1ccc(OCCOC(=O)c2cc(S(=O)(=O)N3CCCCC3)ccc2N2CCOCC2)cc1,8.95 µM
9,COc1ccc(OC)c(NC(=O)CSc2nnnn2-c2ccc3c(c2)OCO3)c1,3.36 µM
10,COc1ccc(C)cc1NC(=O)c1nnn(Cc2cccc(C(F)(F)F)c2)c1N,> 39.8 µM (inactive)
11,O=C(OC(c1ccccc1)c1nccc2ccccc12)c1ccccc1 (centres undefined),0.242 µM
12,Cc1cc(C(=O)COc2cccnc2[N+](=O)[O-])c(C)n1-c1ccccc1,0.3 µM
13,Oc1[nH]c2ccccc2c1N=NC(=S)N1CCOCC1,> 39.9 µM (inactive)
14,C=C1C(=O)OC2CC(C)C3C=CC(=O)C3(C)C(O)C12 (centres undefined),10.5 µM (inactive)
15,COc1ccc(CNC(=O)c2c(C)oc3c2C(=O)c2ccccc2C3=O)cc1,1.18 µM
16,COc1cnc(-c2ccccn2)nc1Sc1ccccc1Cl,4.92 µM
17,CCN(CC)S(=O)(=O)c1ccc(NC(=O)Nc2cccc(C(F)(F)F)c2)cc1,7.08 µM
18,CC(C)(C)C(=O)Nc1ccc(Sc2ccc([N+](=O)[O-])cc2)cc1,4.6 µM
19,Clc1cc2cccnc2c2ncccc12,12.1 µM (inactive)
20,C#Cc1cccc(Nc2nc(NCc3ccccc3)nc3ccsc23)c1,12.8 µM (inactive)
21,CCN(c1ccccc1)S(=O)(=O)c1ccc(C(=O)Nc2nnc(CSC)o2)cc1,12.7 µM (inactive)
22,CC(C)c1ccc(C(c2c(O)c3ccccc3oc2=O)c2c(O)c3ccccc3oc2=O)cc1,10.3 µM (inactive)
23,O=C(NCc1cccnc1)/C(=C\c1ccc(-c2ccc(Cl)c(Cl)c2)o1)S(=O)(=O)c1ccccc1,7.96 µM
24,Cc1ccc(S(=O)(=O)N2[C@@H](c3ccc(Br)cc3)C(C(=O)O)=CC[C@H]2c2ccc(Cl)c(Cl)c2)cc1,7.28 µM
25,O=C(c1cc(S(=O)(=O)N2CCN(c3ccccc3)CC2)ccc1Cl)N1CCCCCCC1,2.51 µM
26,O=c1cc(C(F)(F)F)nc(SC/C=C/c2ccccc2)[nH]1,13 µM (inactive)

row,SMILES,IC50
1,COc1ccc2c(CC(=O)Nc3ncc(C)s3)coc2c1,> 39.8 µM (inactive)
2,Cc1ccsc1C(=O)OCC(=O)c1cc(C)n(CC2CCCO2)c1C (centres undefined),0.0525 µM
3,CCOC(=O)Cc1nnc2c(Nc3ccccc3F)nc3nonc3n12,4.03 µM
4,O=[N+]([O-])c1ccc(NS(=O)(=O)c2ccccc2)c(Cl)c1,4.38 µM
5,O=c1cc(N2CCN(c3ccccc3)CC2)[nH]c(=O)n1C1CCCCC1,> 39.8 µM (inactive)
6,O=C(C1CCC(CNS(=O)(=O)c2cccc3nsnc23)CC1)N1CC=C(c2ccccc2)CC1 (centres undefined),6.86 µM
7,Cc1cccc(C(=O)N[C@H](C(=O)Nc2ncc(C)s2)C(C)C)c1,12.1 µM (inactive)
8,CC(=O)c1c(O)cc(O)c(C(C)=O)c1O,4.56 µM
9,Cc1cc(C(=O)CSc2nc3ccccc3[nH]2)c(C)n1CC1CCCO1 (centres undefined),7.32 µM
10,O=C(Nc1cccc(NC(=O)c2c(F)cccc2F)n1)c1c(F)cccc1F,> 39.8 µM (inactive)
11,CCCCCCCCn1c(=O)c(C(=O)OC)c(N)c2ccccc21,3.64 µM
12,CCC(Sc1nc(C)cc(=O)[nH]1)C(=O)Nc1sc2c(c1C#N)CCCC2 (centres undefined),5.06 µM
13,Cc1ccnc(NC(=O)C2CCN(S(=O)(=O)c3c(C)c(C)cc(C)c3C)CC2)c1,13.2 µM (inactive)
14,CN(C)c1ncnc2c1ccn2C1OC(CO)C(O)C1O (centres undefined),0.53 µM
15,O=S(=O)(NC1CCCC1)c1ccc(S(=O)(=O)N2CCc3ccccc32)cc1,4.59 µM
16,O=[N+]([O-])c1ccc(O)c2ncccc12,6.36 µM
17,CCNc1nc2c(c(=O)n(C)c(=O)n2C)n1Cc1ccc(Cl)cc1,6.02 µM
18,Cc1ccc(S(=O)(=O)N(CC(=O)Nc2ccccc2C(=O)O)c2cccc(Cl)c2C)cc1,18.8 µM (inactive)
19,CCCCCc1c(-c2ccc(OC)c(OC)c2)ncn1CCc1ccccc1OC,7.74 µM
20,O=C(Nc1ccccc1Cl)/C(Cl)=C(\Cl)S(=O)c1ccccc1 (centres undefined),4.1 µM
21,Cc1nc2ccc(S(=O)(=O)Nc3cccc(-c4nc5cccnc5s4)c3)cc2s1,7.12 µM
22,Cc1cccc(/C=N/Nc2cc(N3CCOCC3)nc(N3CCOCC3)n2)c1,5.91 µM
23,c1coc(CNc2ncnc3ccccc23)c1,4.45 µM
24,Cc1ccc(S(=O)(=O)N2[C@@H](c3ccc(Cl)c(Cl)c3)C(C(=O)O)=C[C@H]2CC2CCCC2)cc1,12 µM (inactive)
25,Cc1ccc(S(=O)(=O)N2[C@@H](c3ccc(Cl)cc3)C(C(=O)O)=CC[C@H]2c2ccc(C(C)C)cc2)cc1,7.56 µM
26,Nc1nc(-c2ccccn2)nc(N)c1Cc1c(F)cccc1Cl,2.69 µM

row,SMILES,IC50
1,NS(=O)(=O)c1ccc(CCNc2nn3c(-c4cccc(OC(F)(F)F)c4)cnc3s2)cc1,4.66 µM
2,CC(C)(C)C(=O)Nc1cc2nn(-c3ccccc3)nc2cc1Cl,0.00479 µM
3,Cc1nc(NC(=O)c2c(-c3ccccc3Cl)noc2C)sc1C,> 39.8 µM (inactive)
4,CCCCCCCCCCCCN1[C@@H](CC(=O)O)c2cc(C(F)(F)F)ccc2S1(=O)=O,8.1 µM
5,C=CCn1c(C)cc(C(=O)CN2C(=O)c3ccccc3S2(=O)=O)c1C,2.31 µM
6,O=C(Nc1cccc(OC(F)(F)F)c1)C1Cc2c(-c3ccc4c(c3)OCO4)ccnc2O1 (centres undefined),14.4 µM (inactive)
7,COc1ccc(CNC(=O)c2cccc3c(-c4ccc(F)c(F)c4)coc23)cc1OC,4.54 µM
8,O=C(CSc1nnnn1-c1ccc2c(c1)OCCO2)Nc1nc2c(s1)CCCC2,> 39.8 µM (inactive)
9,O=C(Nc1ccc(Cn2cccn2)cc1)c1ccc(COc2ccccc2Br)cc1,> 39.8 µM (inactive)
10,COc1ccc(C(=O)c2c(C(F)(F)F)oc3c2C(=O)c2ccccc2C3=O)cc1OC,1.68 µM
11,COc1ccc(NC(=O)c2sc(=O)n(Cc3cccc(C(F)(F)F)c3)c2C)cc1OC,35.6 µM (inactive)
12,CC(C)c1ccc(/C=C(\c2nc3ccccc3[nH]2)S(=O)(=O)c2ccccc2)cc1,13.2 µM (inactive)
13,CCOP(=O)(CCP(=O)(OCC)OCC)OCC.C[CH2][Sn]([Cl])([Cl])[CH2]C,10.9 µM (inactive)
14,Nc1nc(-c2ccccn2)nc(N)c1Cc1ccc(Cl)cc1Cl,4.59 µM
15,CCCCOc1ccc(CONS(=O)(=O)c2ccc(NC(C)=O)cc2)cc1Cl,4.03 µM
16,Cc1cc(C(=O)Nc2ccc(Cl)cc2)c(C)n1-c1ccccc1,0.00684 µM
17,Cc1cccc(C)c1OCc1cc(C(=O)N2CCC(c3ccncc3)CC2)no1,2.08 µM
18,S=C(NN=Cc1ccccn1)Nc1ccccn1,4.44 µM
19,COc1cc2c(O)c3c(c(-c4ccc5c(c4)OCO5)c2cc1OC)C(=O)OC3,2.3 µM
20,CCOc1ccc(-c2nc(CSCC(=O)N3CCN(c4cccc(OC)c4)CC3)c(C)o2)cc1,3.02 µM
21,C=CCn1c(C)cc(C(=O)COc2ccc(C)nc2[N+](=O)[O-])c1C,0.946 µM
22,O=C(NC(=O)N1CCN(c2cccc(Cl)c2)CC1)c1ccc(Cl)cc1,4.17 µM
23,CC(C)(C)NCC(=Cc1ccccc1)C(=O)c1ccccc1,7.33 µM
24,Cc1sc2ncnc(NCC(O)c3ccccc3)c2c1C (centres undefined),4.74 µM
25,COc1ccc(C)cc1NC(=O)NC1CC(=O)N(c2ccc3c(c2)OCCO3)C1 (centres undefined),20.3 µM (inactive)
26,COc1ccc([C@@H]2C[C@H]3[C@@H](CN2S(=O)(=O)c2ccccc2)C(=O)C[C@@H](c2cccc(Cl)c2)N3S(=O)(=O)c2ccc(C)cc2)cc1,4.51 µM

row,SMILES,IC50
1,C=C1C(=O)O[C@@H]2C[C@@H](C)[C@@H]3C=CC(=O)[C@@]3(C)[C@@H](O)[C@H]12,4.37 µM
2,c1ccc(-c2cc(CSc3nc4ccccc4[nH]3)on2)cc1,2.69 µM
3,N#C/C(=N\Nc1ccc(Cl)c(Cl)c1)C(=O)C1CC1,1.04 µM
4,COc1cc(OC)nc(-n2ncc(Br)c(Br)c2=O)n1,4.91 µM
5,CCCOc1ccc(CSc2nc3ccccc3[nH]2)cc1,13.3 µM (inactive)
6,CSC(=Nc1ccccc1)N=C(SCc1ccccc1)N(C)C,4.06 µM
7,OC[C@@H]1CN(Cc2ccc(-c3ccccc3)cc2)C[C@H](n2cnc3c(Nc4ccccc4)ncnc32)O1,5 µM
8,c1ccc(CNc2ncnc3sccc23)cc1,4.71 µM
9,O=C(CSc1nnnn1-c1ccccc1)Nc1nsc(-c2ccc(Cl)cc2)n1,0.833 µM
10,COc1ccccc1C(=O)Nc1nc2ccccc2[nH]1,5.03 µM
11,CC(=O)Nc1ccc(Sc2ccc([N+](=O)[O-])o2)cc1,18.3 µM (inactive)
12,Cc1ccc(Cc2cnc(N3C(=N)SC(C)C3=O)s2)cc1 (centres undefined),4.37 µM
13,O=C(COc1cccc2ccccc12)Nc1ccc(Cl)cc1C(=O)O,4.04 µM
14,N=C1SCC(=O)N1c1ncc(Cc2ccccc2Cl)s1,10.5 µM (inactive)
15,COc1ccc(S(=O)(=O)N2CCCCC2)cc1NC(=S)Nc1cccc(Cl)c1C,> 39.8 µM (inactive)
16,CC(C)(C)c1ccc(CSc2nc(N)cc(=O)[nH]2)cc1,4.53 µM
17,Cc1noc(C)c1S(=O)(=O)Nc1ccc(C(=O)N2CCN(c3ccc(Cl)cc3)CC2)cc1,7.09 µM
18,CC[C@@]1(O)C(=O)OCc2c1cc1n(c2=O)Cc2cc3c(N)cccc3nc2-1,1.99 µM
19,N#Cc1c(-c2ccccc2)cc(-c2ccccc2)nc1SCCC(=O)O,31.5 µM (inactive)
20,Cc1ccc(S(=O)(=O)c2ccc([N+](=O)[O-])o2)cc1,6.32 µM
21,CCOC(=O)N1CCN(C(=O)c2ccc(S(=O)(=O)Nc3ccc(C)cc3)cc2)CC1,8.62 µM
22,Cc1cc(NC(=O)CSc2nc3c(sc4ccccc43)c(=O)n2CCCN2CCOCC2)n[nH]1,> 39.8 µM (inactive)
23,FC(F)Sc1ccc(NC(=S)N2CCN(c3ccccn3)CC2)cc1,4.15 µM
24,O=[N+]([O-])c1cc(C(F)(F)F)cc([N+](=O)[O-])c1NCCNC(=S)Nc1ccc(Cl)c(Cl)c1,11.5 µM (inactive)
25,O=C1C(=O)c2cccnc2-c2ncccc21,13.1 µM (inactive)
26,Cc1ccccc1Cn1nnc(C(=O)Nc2cccc(C)c2C)c1N,18 µM (inactive)
